Experiments:
C-Raf = C-Raf (Homo sapiens, UniProt P04049); test: Kinase activity assay, C-Raf
Kit = Kit (Homo sapiens, UniProt P10721); test: Kinase activity assay, Kit
Kdr = Kdr (Homo sapiens, UniProt P35968); test: Kinase activity assay, Kdr
Fms = Fms (Homo sapiens, UniProt P07333); test: Kinase activity assay, Fms
Src = Src (Homo sapiens, UniProt P12931); test: Kinase activity assay, Src
B-Raf = B-Raf (Homo sapiens, UniProt P15056); test: Kinase activity assay, B-Raf; format: biochemical; settings: read-out: activity toward kinase B-Raf, IC50
B-Raf V600E = B-Raf V600E (Homo sapiens, UniProt P15056, V600E); test: Kinase activity assay, B-Raf V600E; format: biochemical; settings: read-out: activity toward kinase B-Raf V600E, IC50
MAP4K4 = MAP4K4 (Homo sapiens, UniProt O95819); test: Kinase activity assay, MAP4K4

Measured: IC50

Sequence of Kdr (P35968 20-1356): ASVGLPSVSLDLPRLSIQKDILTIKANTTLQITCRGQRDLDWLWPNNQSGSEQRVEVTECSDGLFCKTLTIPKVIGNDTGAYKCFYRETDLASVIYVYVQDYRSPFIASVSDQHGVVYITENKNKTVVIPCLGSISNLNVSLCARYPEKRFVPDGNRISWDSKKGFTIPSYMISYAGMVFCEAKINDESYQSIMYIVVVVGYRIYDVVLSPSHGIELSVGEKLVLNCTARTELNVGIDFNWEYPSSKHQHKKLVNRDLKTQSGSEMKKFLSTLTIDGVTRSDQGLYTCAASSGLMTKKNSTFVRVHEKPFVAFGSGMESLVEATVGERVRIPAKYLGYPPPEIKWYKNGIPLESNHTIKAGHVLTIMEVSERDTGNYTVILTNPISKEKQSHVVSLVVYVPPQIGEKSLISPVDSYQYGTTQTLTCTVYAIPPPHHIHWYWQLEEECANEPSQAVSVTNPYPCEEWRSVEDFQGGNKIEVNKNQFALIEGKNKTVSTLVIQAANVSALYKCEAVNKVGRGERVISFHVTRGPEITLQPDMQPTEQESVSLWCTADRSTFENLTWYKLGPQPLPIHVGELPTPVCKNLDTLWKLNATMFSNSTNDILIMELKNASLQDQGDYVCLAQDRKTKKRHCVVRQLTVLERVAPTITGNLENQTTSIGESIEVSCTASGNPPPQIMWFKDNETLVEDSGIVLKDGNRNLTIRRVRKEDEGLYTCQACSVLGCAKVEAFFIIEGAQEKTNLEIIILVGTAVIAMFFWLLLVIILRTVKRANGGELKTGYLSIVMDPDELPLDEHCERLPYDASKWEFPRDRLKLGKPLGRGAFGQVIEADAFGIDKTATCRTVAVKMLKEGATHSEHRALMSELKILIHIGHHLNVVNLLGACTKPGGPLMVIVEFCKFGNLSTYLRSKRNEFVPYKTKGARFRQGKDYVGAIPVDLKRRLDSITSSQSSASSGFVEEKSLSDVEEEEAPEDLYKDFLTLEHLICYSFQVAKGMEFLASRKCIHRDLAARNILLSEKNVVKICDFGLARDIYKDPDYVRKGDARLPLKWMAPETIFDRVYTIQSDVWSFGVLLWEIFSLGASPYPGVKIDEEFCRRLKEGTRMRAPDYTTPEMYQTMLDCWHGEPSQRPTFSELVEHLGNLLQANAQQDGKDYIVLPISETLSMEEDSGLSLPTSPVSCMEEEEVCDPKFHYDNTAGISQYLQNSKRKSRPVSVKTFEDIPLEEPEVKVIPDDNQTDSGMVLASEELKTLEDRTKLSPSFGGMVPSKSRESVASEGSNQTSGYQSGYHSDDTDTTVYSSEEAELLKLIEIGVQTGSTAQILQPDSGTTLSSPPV
Sequence of Fms (P07333 20-972): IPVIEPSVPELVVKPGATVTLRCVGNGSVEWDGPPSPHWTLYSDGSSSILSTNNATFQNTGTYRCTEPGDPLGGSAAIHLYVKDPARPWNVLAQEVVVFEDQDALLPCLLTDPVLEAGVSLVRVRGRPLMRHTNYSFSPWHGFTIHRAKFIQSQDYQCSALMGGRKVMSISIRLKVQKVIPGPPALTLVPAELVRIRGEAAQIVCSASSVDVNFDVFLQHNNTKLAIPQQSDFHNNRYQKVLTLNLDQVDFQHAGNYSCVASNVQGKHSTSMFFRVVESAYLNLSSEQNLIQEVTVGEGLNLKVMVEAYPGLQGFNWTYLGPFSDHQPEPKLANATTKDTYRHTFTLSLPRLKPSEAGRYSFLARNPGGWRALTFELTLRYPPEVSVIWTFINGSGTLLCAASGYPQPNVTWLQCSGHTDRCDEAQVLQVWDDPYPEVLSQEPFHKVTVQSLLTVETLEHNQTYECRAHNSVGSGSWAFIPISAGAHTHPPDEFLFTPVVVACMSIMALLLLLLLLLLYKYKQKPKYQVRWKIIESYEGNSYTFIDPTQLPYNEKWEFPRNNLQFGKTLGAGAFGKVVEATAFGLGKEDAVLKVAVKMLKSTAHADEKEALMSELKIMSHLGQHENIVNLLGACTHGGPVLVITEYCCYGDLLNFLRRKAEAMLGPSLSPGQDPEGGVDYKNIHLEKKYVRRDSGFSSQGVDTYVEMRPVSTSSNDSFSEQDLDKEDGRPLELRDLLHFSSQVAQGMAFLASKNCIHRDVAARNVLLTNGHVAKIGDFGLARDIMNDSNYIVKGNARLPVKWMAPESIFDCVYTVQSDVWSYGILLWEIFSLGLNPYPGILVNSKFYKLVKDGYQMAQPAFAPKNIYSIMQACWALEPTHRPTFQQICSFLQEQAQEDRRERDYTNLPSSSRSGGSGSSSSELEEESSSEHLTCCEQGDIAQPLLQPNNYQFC
Sequence of Kit (P10721 26-976): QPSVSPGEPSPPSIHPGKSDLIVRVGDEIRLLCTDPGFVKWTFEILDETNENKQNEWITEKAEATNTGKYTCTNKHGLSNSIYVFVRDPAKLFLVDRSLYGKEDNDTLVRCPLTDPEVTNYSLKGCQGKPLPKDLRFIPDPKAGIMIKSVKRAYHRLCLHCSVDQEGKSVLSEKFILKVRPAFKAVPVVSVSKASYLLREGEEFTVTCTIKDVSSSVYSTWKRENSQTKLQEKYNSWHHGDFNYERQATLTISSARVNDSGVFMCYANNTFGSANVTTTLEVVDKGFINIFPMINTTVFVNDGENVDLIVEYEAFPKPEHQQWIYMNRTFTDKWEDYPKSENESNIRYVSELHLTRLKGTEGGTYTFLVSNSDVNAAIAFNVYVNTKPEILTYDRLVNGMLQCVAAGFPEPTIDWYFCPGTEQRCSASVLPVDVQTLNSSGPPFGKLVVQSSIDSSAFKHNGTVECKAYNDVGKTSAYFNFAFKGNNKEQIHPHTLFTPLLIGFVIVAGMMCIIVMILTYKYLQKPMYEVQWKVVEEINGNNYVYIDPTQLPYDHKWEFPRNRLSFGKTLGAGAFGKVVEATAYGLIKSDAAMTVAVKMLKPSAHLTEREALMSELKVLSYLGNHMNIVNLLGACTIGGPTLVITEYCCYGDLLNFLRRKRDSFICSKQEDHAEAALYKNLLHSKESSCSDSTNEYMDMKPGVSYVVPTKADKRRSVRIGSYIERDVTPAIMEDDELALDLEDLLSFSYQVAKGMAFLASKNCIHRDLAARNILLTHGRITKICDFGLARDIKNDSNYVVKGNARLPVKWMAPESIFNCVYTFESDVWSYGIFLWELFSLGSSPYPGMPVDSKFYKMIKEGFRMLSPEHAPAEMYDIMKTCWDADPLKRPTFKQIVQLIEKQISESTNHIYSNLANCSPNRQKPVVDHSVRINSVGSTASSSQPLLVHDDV
Sequence of B-Raf V600E (P15056 whole entry V600E): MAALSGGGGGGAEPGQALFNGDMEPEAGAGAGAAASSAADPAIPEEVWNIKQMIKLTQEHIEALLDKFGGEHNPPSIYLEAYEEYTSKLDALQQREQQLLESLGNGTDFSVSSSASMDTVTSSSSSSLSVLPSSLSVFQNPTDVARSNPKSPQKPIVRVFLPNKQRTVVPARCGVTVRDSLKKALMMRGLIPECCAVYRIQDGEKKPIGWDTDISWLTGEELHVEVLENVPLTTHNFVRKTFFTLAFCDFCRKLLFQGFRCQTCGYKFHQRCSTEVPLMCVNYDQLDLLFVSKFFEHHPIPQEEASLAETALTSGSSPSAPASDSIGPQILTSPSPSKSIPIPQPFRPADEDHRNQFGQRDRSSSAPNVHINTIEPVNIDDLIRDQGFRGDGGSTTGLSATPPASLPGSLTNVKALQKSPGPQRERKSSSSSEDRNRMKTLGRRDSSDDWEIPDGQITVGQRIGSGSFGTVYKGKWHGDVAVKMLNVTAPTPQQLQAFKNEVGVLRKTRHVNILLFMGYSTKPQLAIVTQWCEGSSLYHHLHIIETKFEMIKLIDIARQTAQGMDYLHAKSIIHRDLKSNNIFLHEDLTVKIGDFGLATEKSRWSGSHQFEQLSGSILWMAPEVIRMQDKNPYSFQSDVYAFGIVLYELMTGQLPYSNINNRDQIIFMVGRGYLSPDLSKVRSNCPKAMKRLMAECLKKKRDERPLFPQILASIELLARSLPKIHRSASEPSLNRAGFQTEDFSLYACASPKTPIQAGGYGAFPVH
Sequence of B-Raf (P15056 whole entry): as the sequence (P15056 whole entry V600E) above, with E600V counted along it
Sequence of C-Raf (P04049 whole entry): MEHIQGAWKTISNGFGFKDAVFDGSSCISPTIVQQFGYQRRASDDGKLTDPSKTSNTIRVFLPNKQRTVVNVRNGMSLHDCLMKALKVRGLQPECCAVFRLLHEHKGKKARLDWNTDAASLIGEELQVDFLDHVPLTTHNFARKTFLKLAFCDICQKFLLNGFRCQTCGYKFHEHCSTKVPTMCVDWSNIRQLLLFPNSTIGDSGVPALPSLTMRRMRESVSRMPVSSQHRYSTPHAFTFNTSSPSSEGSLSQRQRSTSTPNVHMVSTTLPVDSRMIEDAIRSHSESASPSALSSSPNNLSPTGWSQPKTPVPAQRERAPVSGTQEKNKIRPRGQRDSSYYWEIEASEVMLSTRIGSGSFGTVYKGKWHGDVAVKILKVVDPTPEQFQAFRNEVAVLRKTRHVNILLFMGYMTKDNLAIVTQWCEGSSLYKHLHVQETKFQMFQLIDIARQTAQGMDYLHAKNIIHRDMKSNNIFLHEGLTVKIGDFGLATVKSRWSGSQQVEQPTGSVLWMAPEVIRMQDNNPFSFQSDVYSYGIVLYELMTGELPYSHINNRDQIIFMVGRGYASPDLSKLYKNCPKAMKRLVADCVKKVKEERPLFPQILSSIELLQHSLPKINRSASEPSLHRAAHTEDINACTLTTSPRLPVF

CN1CCOc2cc(S(=O)(=O)Nc3ccc(F)c(C(=O)c4c[nH]c5ncc(Cl)cc45)c3F)ccc21 [P-2001, 4-Methyl-3,4-dihydro-2H-benzo[1,4]oxazine-7-sulfonic acid [3-(5-chloro-1H-pyrrolo[2,3-b]pyridine-3-carbonyl)-2,4-difluoro-phenyl]-amide]
not listed: B-Raf V600E | MAP4K4
≤ 10 µM: all other assays above

Cc1cc(C)cc(S(=O)(=O)Nc2ccc(F)c(C(=O)c3c[nH]c4ncc(Cl)cc34)c2F)c1 [P-2004, N-[3-(5-Chloro-1H-pyrrolo[2,3-b]pyridine-3-carbonyl)-2,4-difluoro-phenyl]-3,5-dimethyl-benzenesulfonamide]
not listed: MAP4K4
≤ 10 µM: all other assays above

COc1ccc(S(=O)(=O)Nc2ccc(F)c(C(=O)c3c[nH]c4ncc(Cl)cc34)c2F)cc1F [P-2005, N-[3-(5-Chloro-1H-pyrrolo[2,3-b]pyridine-3-carbonyl)-2,4-difluoro-phenyl]-3-fluoro-4-methoxy-benzenesulfonamide]
not listed: MAP4K4
≤ 10 µM: all other assays above

Cc1cc(F)ccc1S(=O)(=O)Nc1ccc(F)c(C(=O)c2c[nH]c3ncc(Cl)cc23)c1F [P-2006, N-[3-(5-Chloro-1H-pyrrolo[2,3-b]pyridine-3-carbonyl)-2,4-difluoro-phenyl]-4-fluoro-2-methyl-benzenesulfonamide]
not listed: MAP4K4
≤ 10 µM: all other assays above

O=C(c1c(F)ccc(NS(=O)(=O)c2ccc3c(c2)CCO3)c1F)c1c[nH]c2ncc(Cl)cc12 [P-2007, 2,3-Dihydro-benzofuran-5-sulfonic acid [3-(5-chloro-1H-pyrrolo[2,3-b]pyridine-3-carbonyl)-2,4-difluoro-phenyl]-amide]
not listed: Kdr | MAP4K4
≤ 10 µM: all other assays above

O=C(c1cccc(NS(=O)(=O)c2cccnc2)c1)c1c[nH]c2ncc(Cl)cc12 [P-2146, Pyridine-3-sulfonic acid [3-(5-chloro-1H-pyrrolo[2,3-b]pyridine-3-carbonyl)-phenyl]-amide]
≤ 10 µM: Kdr | MAP4K4

CCCS(=O)(=O)Nc1ccc(F)c(C(=O)c2c[nH]c3ncc(-c4ccc(F)nc4)cc23)c1F [P-2155, Propane-1-sulfonic acid {2,4-difluoro-3-[5-(6-fluoro-pyridin-3-yl)-1H-pyrrolo[2,3-b]pyridine-3-carbonyl]-phenyl}-amide]
not listed: MAP4K4
≤ 10 µM: all other assays above

CCCS(=O)(=O)Nc1ccc(F)c(C(=O)c2c[nH]c3ncc(-c4ccc(S(=O)(=O)N5CCOCC5)cc4)cc23)c1F [P-2166, Propane-1-sulfonic acid (2,4-difluoro-3-{5-[4-(morpholine-4-sulfonyl)-phenyl]-1H-pyrrolo[2,3-b]pyridine-3-carbonyl}-phenyl)-amide]
not listed: MAP4K4
≤ 10 µM: all other assays above

CCCS(=O)(=O)Nc1ccc(F)c(C(=O)c2c[nH]c3ncc(-c4ccc(S(=O)(=O)NC)cc4)cc23)c1F [P-2167, 4-{3-[2,6-Difluoro-3-(propane-1-sulfonylamino)-benzoyl]-1H-pyrrolo[2,3-b]pyridin-5-yl}-N-methyl-benzenesulfonamide]
not listed: MAP4K4
≤ 10 µM: all other assays above

CCCS(=O)(=O)Nc1ccc(F)c(C(=O)c2c[nH]c3ncc(-c4ccc(C)nc4F)cc23)c1F [P-2172, Propane-1-sulfonic acid {2,4-difluoro-3-[5-(2-fluoro-6-methyl-pyridin-3-yl)-1H-pyrrolo[2,3-b]pyridine-3-carbonyl]-phenyl}-amide]
not listed: C-Raf | MAP4K4
≤ 10 µM: all other assays above

CCCS(=O)(=O)Nc1ccc(F)c(C(=O)c2c[nH]c3ncc(-c4ccnn4C)cc23)c1F [P-2175, Propane-1-sulfonic acid {2,4-difluoro-3-[5-(2-methyl-2H-pyrazol-3-yl)-1H-pyrrolo[2,3-b]pyridine-3-carbonyl]-phenyl}-amide]
not listed: C-Raf | MAP4K4
≤ 10 µM: all other assays above

CCCS(=O)(=O)Nc1ccc(F)c(C(=O)c2c[nH]c3ncc(-c4cccc(O)c4)cc23)c1F [P-2179, Propane-1-sulfonic acid {2,4-difluoro-3-[5-(3-hydroxy-phenyl)-1H-pyrrolo[2,3-b]pyridine-3-carbonyl]-phenyl}-amide]
not listed: MAP4K4
≤ 10 µM: all other assays above

CCCS(=O)(=O)Nc1ccc(F)c(C(=O)c2c[nH]c3ncc(-c4ccc(C(=O)NC)nc4)cc23)c1F [P-2180, 5-{3-[2,6-Difluoro-3-(propane-1-sulfonylamino)-benzoyl]-1H-pyrrolo[2,3-b]pyridin-5-yl}-pyridine-2-carboxylic acid methylamide]
not listed: C-Raf | MAP4K4
≤ 10 µM: all other assays above

CCCS(=O)(=O)Nc1ccc(F)c(C(=O)c2c[nH]c3ncc(-c4ccc(C(=O)NC5CC5)nc4)cc23)c1F [P-2181, 5-{3-[2,6-Difluoro-3-(propane-1-sulfonylamino)-benzoyl]-1H-pyrrolo[2,3-b]pyridin-5-yl}-pyridine-2-carboxylic acid cyclopropylamide]
not listed: C-Raf | MAP4K4
≤ 10 µM: all other assays above

CCCS(=O)(=O)Nc1ccc(F)c(C(=O)c2c[nH]c3ncc(-c4ccc(S(=O)(=O)N(C)C)cc4)cc23)c1F [P-2185, 4-{3-[2,6-Difluoro-3-(propane-1-sulfonylamino)-benzoyl]-1H-pyrrolo[2,3-b]pyridin-5-yl}-N,N-dimethyl-benzenesulfonamide]
not listed: MAP4K4
≤ 10 µM: all other assays above

CCCS(=O)(=O)Nc1ccc(F)c(C(=O)c2c[nH]c3ncc(-c4ccc(SC)nc4)cc23)c1F [P-2187]
not listed: C-Raf | MAP4K4
≤ 10 µM: all other assays above

CCCS(=O)(=O)Nc1ccc(F)c(C(=O)c2c[nH]c3ncc(-c4ccnc(F)c4)cc23)c1F [P-2192, Propane-1-sulfonic acid {2,4-difluoro-3-[5-(2-fluoro-pyridin-4-yl)-1H-pyrrolo[2,3-b]pyridine-3-carbonyl]-phenyl}-amide]
not listed: C-Raf | MAP4K4
≤ 10 µM: all other assays above

CCCS(=O)(=O)Nc1ccc(F)c(C(=O)c2c[nH]c3ncc(O)cc23)c1F [P-2204, Propane-1-sulfonic acid [2,4-difluoro-3-(5-hydroxy-1H-pyrrolo[2,3-b]pyridine-3-carbonyl)-phenyl]-amide]
not listed: C-Raf | MAP4K4
≤ 10 µM: all other assays above

CCS(=O)(=O)Nc1ccc(F)c(C(=O)c2c[nH]c3ncc(Br)cc23)c1F [P-2268, Ethanesulfonic acid [3-(5-bromo-1H-pyrrolo[2,3-b]pyridine-3-carbonyl)-2,4-difluoro-phenyl]-amide]
not listed: C-Raf | MAP4K4
≤ 10 µM: all other assays above

CC(C)CS(=O)(=O)Nc1ccc(F)c(C(=O)c2c[nH]c3ncc(-c4ccc(F)cc4)cc23)c1F [P-2298, 2-Methyl-propane-1-sulfonic acid {2,4-difluoro-3-[5-(4-fluoro-phenyl)-1H-pyrrolo[2,3-b]pyridine-3-carbonyl]-phenyl}-amide]
not listed: C-Raf | MAP4K4
≤ 10 µM: all other assays above

O=C(c1c(F)ccc(NS(=O)(=O)CCC(F)(F)F)c1F)c1c[nH]c2ncc(-c3ccc(F)cc3)cc12 [P-2326, 3,3,3-Trifluoro-propane-1-sulfonic acid {2,4-difluoro-3-[5-(4-fluoro-phenyl)-1H-pyrrolo[2,3-b]pyridine-3-carbonyl]-phenyl}-amide]
not listed: C-Raf | MAP4K4
≤ 10 µM: all other assays above

O=C(c1c(F)ccc(NS(=O)(=O)CC(F)(F)F)c1F)c1c[nH]c2ncc(Br)cc12 [P-2334, 2,2,2-Trifluoro-ethanesulfonic acid [3-(5-bromo-1H-pyrrolo[2,3-b]pyridine-3-carbonyl)-2,4-difluoro-phenyl]-amide]
not listed: C-Raf | MAP4K4
≤ 10 µM: all other assays above

Source: US20120122860A1, “SOLID FORMS OF SULFONAMIDES AND AMINO ACIDS” (Plexxikon, Inc., priority 2009, published 2012)
